Data: patent publication US9247759B2, “Identification of human T2R receptors that respond to bitter compounds that elicit the bitter taste in compositions, and the use thereof in assays to identify compounds that inhibit (block) bitter taste in compositions and use thereof” (SENOMYX, INC., priority 2007, dated 2016)
pIC50: −log10 of the molar value.

What was measured:
hT2R3 = hT2R3 (Homo sapiens (Human), UniProt Q9NYW6); experiment: hT2R panel inhibition, transient HEK293 G16g44, agonist Chloroquine pH6.5 50 μM; format: cell-based; conditions: HEK293, compound at 25 μM; receptor activated to EC80 with the corresponding agonist; read-out: screening result against bitter receptor 3
Summary of the method: (§1)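 Functional inhibition format: single hT2R transient expression in a G16g44-stable line, bitter agonist at EC80, test compound effect expressed as reduction in receptor activity.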

hT2R51 = hT2R51 (Homo sapiens (Human), UniProt P59533); experiment: hT2R panel inhibition, transient HEK293 G16g44, agonist Prop 2.5 μM; format: cell-based; conditions: HEK293, compound at 25 μM; receptor activated to EC80 with the corresponding agonist; read-out: screening result against bitter receptor 51
Summary of the method: as §1

hT2R16 = hT2R16 (Homo sapiens (Human), UniProt Q9NYV7); experiment: hT2R panel inhibition, transient HEK293 G16g44, agonist Salicin 1 mM; format: cell-based; conditions: HEK293, compound at 25 μM; receptor activated to EC80 with the corresponding agonist; read-out: screening result against bitter receptor 16
Summary of the method: as §1

hT2R4 = hT2R4 (Homo sapiens (Human), UniProt Q9NYW5); experiment: hT2R panel inhibition, transient HEK293 G16g44, agonist Chloroquine pH6.5 5 mM; format: cell-based; conditions: HEK293, compound at 25 μM; receptor activated to EC80 with the corresponding agonist; class symbols; read-out: screening result against bitter receptor 4
Summary of the method: as §1

hT2R10 = hT2R10 (Homo sapiens (Human), UniProt Q9NYW0); experiment: hT2R panel inhibition, transient HEK293 G16g44, agonist Strychnine 50 μM; format: cell-based; conditions: HEK293, read-out: screening result against bitter receptor 10, compound at 25 μM; receptor activated to EC80 with the corresponding agonist
hT2R14 [1] = molecular target: T1, hT2R14 (Homo sapiens (Human), UniProt Q9NYV8); experiment: hT2R14 antagonist high-throughput FLIPR assay, stable cell line with G16g44, agonist aristolochic acid; format: cell-based; conditions: read-out: IC50 on hT2R14 bitter receptor
Summary of the method: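 Compounds were co-applied with 3 μM aristolochic acid, a dose set to reach 70-80% of maximal hT2R14 activation. Read-out was FLIPR fluorescence in a stable HEK293 line co-expressing hT2R14 and G16g44.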

hT2R55 = experiment: hT2R panel inhibition, transient HEK293 G16g44, agonist Cinchonine 150 μM; format: cell-based, human; conditions: compound at 25 μM; receptor activated to EC80 with the corresponding agonist
Summary of the method: as §1

hT2R64 = hT2R64 (Homo sapiens (Human), UniProt P59538); experiment: hT2R panel inhibition, transient HEK293 G16g44, agonist Aristolochic Acid 1 μM; format: cell-based; conditions: HEK293, compound at 25 μM; receptor activated to EC80 with the corresponding agonist; read-out: screening result against bitter receptor 64
Summary of the method: as §1

hT2R61 = hT2R61 (Homo sapiens (Human), UniProt P59537); experiment: hT2R panel inhibition, transient HEK293 G16g44, agonist Aristolochic Acid 25 nM; format: cell-based; conditions: HEK293, compound at 25 μM; receptor activated to EC80 with the corresponding agonist; read-out: screening result against bitter receptor 61
Summary of the method: as §1

hT2R65 = experiment: hT2R panel inhibition, transient HEK293 G16g44, agonist Oleuropein 1 mM; format: cell-based, human; conditions: compound at 25 μM; receptor activated to EC80 with the corresponding agonist
Summary of the method: as §1

hT2R9 = hT2R9 (Homo sapiens (Human), UniProt Q9NYW1); experiment: hT2R panel inhibition, transient HEK293 G16g44, agonist Ofloxacin 1 mM; format: cell-based; conditions: HEK293, compound at 25 μM; receptor activated to EC80 with the corresponding agonist; read-out: screening result against bitter receptor 9
Experimental: Specifically, in order to evaluate the inhibitory selectivity of the Compound C compound, this compound was tested against 22 human T2Rs which were deorphaned by Senomyx. These receptors and the bitter ligands that activate these human T2Rs are reported in earlier patent applications which are incorporated by reference herein. These 22 human T2Rs are hT2R1, 3, 4, 5, 7, 8, 9, 10, 13, 14, 16, 44, 51, 54, 55, 61, 63, 64, 65, 67, 71 and 75. The amino acid and nucleic acid sequences of all of these T2Rs may be found in these earlier patent applications. These human T2Rs were each individually transiently transfected into HEK293 cells that stably express the promiscuous G protein G16g44 and functional assays were effected using these receptors as disclosed in these same patent applications. […] The ligands were used at EC80 concentration levels. The list of bitter ligands utilized and the tested ligand concentrations are contained in Table 5 of this example.
Relating to the foregoing, FIG. 5 contains experimental results wherein Compound C was tested with different agonist compounds. The inhibition activity is represented by the reduction of receptor activity in the presence of Compound C. […] These 13 hT2Rs are hT2R3, 7, 10, 14, 16, 44, 51, 55, 61, 63, 64, 65, and 71.

hT2R54 = experiment: hT2R panel inhibition, transient HEK293 G16g44, agonist Ranitidine 5 mM; format: cell-based, human; conditions: compound at 25 μM; receptor activated to EC80 with the corresponding agonist
Summary of the method: as §1

hT2R71 = hT2R71 (Homo sapiens (Human), UniProt P59536); experiment: hT2R panel inhibition, transient HEK293 G16g44, agonist Picric Acid 10 μM; format: cell-based; conditions: HEK293, compound at 25 μM; receptor activated to EC80 with the corresponding agonist; read-out: screening result against bitter receptor 71
Summary of the method: as §1

hT2R44 = experiment: hT2R panel inhibition, transient HEK293 G16g44, agonist Denatonium 0.5 μM; format: cell-based, human; conditions: compound at 25 μM; receptor activated to EC80 with the corresponding agonist
Summary of the method: as §1

hT2R63 = experiment: hT2R panel inhibition, transient HEK293 G16g44, agonist Caffeine 1 mM or Andrographolide 100 μM; format: cell-based, human; conditions: compound at 25 μM; receptor activated to EC80 with the corresponding agonist
Summary of the method: as §1

hT2R14 [2] = molecular target: T1, hT2R14; experiment: hT2R panel inhibition, transient HEK293 G16g44, agonist Aristolochic Acid 2 μM; format: cell-based; conditions: HEK293, compound at 25 μM; receptor activated to EC80 with the corresponding agonist; read-out: screening result against bitter receptor 14
Summary of the method: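 Agonist challenge was at EC80, with 0.5 mM andrographolide on hT2R8 and 2 μM aristolochic acid on hT2R14. Inhibition was measured in functional assays in HEK293 cells that stably carry the promiscuous G protein G16g44 and were transiently transfected with the individual receptor.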

hT2R75 = hT2R75 (Homo sapiens (Human), UniProt P59540); experiment: hT2R panel inhibition, transient HEK293 G16g44, agonist Strychnine 1 μM; format: cell-based; conditions: HEK293, read-out: screening result against bitter receptor 75, compound at 25 μM; receptor activated to EC80 with the corresponding agonist
hT2R67 = experiment: hT2R panel inhibition, transient HEK293 G16g44, agonist Andrographolide 5 μM; format: cell-based, human; conditions: compound at 25 μM; receptor activated to EC80 with the corresponding agonist
Summary of the method: as §1

hT2R5 = hT2R5 (Homo sapiens (Human), UniProt Q9NYW4); experiment: hT2R panel inhibition, transient HEK293 G16g44, agonist Picoline 10 mM; format: cell-based; conditions: HEK293, compound at 25 μM; receptor activated to EC80 with the corresponding agonist; read-out: screening result against bitter receptor 5
Summary of the method: as §1

hT2R7 = hT2R7 (Homo sapiens (Human), UniProt Q9NYW3); experiment: hT2R panel inhibition, transient HEK293 G16g44, agonist Chloroquine pH6.5 10 mM; format: cell-based; conditions: HEK293, compound at 25 μM; receptor activated to EC80 with the corresponding agonist; read-out: screening result against bitter receptor 7
Summary of the method: as §1

hT2R3, sequence (Q9NYW6 whole entry): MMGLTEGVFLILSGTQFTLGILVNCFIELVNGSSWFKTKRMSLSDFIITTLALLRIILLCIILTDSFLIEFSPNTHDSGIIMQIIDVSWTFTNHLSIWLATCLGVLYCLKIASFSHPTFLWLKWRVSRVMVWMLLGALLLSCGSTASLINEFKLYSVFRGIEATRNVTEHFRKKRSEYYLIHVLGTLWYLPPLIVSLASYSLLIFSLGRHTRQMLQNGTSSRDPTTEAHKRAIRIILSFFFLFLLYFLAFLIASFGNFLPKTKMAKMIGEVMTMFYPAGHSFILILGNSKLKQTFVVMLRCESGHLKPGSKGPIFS
hT2R71, sequence (P59536 whole entry): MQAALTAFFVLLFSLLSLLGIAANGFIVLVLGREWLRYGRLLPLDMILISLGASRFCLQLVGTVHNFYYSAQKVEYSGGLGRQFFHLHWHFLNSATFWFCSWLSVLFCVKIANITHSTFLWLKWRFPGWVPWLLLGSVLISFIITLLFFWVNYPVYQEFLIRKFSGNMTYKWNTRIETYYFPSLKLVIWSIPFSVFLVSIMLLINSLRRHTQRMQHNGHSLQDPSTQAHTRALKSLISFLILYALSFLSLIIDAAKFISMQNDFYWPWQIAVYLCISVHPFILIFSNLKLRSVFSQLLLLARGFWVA
hT2R5, sequence (Q9NYW4 whole entry): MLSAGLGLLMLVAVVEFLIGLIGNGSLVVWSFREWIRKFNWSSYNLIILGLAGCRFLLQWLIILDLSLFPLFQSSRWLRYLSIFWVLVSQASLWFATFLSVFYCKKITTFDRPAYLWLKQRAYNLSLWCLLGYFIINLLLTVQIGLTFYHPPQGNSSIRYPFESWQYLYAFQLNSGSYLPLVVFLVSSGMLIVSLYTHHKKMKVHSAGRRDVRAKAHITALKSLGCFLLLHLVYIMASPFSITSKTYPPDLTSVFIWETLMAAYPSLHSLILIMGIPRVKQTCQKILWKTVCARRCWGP
hT2R16, sequence (Q9NYV7 whole entry): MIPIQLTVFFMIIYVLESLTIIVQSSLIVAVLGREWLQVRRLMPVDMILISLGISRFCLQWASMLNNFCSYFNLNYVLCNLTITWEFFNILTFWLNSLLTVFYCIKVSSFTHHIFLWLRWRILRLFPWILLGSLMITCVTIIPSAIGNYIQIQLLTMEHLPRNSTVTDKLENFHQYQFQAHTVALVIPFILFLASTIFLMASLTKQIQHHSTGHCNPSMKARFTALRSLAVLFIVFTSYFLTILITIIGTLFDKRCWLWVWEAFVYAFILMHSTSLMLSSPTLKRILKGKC
T1 sequence (Q9NYV8 whole entry): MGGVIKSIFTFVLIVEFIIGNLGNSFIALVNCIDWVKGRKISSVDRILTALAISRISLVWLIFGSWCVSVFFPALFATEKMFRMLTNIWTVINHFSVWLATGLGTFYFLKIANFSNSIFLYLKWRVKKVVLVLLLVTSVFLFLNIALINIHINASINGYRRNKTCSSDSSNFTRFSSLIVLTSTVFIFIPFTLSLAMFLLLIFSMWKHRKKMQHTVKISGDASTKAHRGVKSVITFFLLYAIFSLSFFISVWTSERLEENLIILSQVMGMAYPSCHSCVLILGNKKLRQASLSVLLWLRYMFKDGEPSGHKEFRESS
hT2R64, sequence (P59538 whole entry): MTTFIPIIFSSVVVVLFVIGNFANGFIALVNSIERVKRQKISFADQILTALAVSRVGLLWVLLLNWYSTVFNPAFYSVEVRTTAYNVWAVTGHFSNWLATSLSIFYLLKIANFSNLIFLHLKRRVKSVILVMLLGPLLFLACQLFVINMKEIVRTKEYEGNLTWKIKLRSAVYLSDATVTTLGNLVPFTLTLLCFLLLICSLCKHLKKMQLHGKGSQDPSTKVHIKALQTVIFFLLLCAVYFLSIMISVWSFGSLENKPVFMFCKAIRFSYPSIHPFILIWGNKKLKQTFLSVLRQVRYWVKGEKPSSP
hT2R51, sequence (P59533 whole entry): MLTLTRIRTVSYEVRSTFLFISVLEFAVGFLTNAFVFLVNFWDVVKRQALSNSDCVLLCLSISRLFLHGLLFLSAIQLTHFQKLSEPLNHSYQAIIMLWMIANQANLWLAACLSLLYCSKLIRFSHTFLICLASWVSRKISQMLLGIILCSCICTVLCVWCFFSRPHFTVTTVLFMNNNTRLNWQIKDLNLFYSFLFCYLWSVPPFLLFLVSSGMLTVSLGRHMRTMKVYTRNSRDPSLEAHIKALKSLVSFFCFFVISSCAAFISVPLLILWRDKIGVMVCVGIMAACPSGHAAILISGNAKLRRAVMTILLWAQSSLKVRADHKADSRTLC
hT2R7, sequence (Q9NYW3 whole entry): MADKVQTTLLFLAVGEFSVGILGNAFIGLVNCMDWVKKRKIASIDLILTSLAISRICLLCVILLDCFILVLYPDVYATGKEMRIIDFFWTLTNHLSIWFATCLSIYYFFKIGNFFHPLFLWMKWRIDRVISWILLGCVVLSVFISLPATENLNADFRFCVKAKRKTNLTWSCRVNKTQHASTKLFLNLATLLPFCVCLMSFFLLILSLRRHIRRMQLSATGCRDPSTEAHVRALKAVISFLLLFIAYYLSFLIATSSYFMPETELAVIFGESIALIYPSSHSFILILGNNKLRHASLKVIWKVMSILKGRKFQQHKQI
hT2R9, sequence (Q9NYW1 whole entry): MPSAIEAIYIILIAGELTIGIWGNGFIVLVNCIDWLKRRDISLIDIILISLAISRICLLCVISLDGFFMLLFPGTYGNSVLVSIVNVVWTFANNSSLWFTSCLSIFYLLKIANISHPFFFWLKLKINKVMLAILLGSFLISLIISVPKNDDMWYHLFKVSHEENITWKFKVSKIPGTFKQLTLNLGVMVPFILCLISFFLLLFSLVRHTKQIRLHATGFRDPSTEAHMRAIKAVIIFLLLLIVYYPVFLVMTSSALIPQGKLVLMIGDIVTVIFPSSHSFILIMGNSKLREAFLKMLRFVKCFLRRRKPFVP
hT2R10, sequence (Q9NYW0 whole entry): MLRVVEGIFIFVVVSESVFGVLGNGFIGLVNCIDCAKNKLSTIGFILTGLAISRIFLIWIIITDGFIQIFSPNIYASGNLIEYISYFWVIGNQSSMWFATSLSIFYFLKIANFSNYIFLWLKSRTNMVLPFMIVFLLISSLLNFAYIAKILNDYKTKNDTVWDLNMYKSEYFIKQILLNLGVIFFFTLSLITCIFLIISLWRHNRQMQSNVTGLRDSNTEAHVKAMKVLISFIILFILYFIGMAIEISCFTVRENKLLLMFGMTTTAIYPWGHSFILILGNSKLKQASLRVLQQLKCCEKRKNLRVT
hT2R61, sequence (P59537 whole entry): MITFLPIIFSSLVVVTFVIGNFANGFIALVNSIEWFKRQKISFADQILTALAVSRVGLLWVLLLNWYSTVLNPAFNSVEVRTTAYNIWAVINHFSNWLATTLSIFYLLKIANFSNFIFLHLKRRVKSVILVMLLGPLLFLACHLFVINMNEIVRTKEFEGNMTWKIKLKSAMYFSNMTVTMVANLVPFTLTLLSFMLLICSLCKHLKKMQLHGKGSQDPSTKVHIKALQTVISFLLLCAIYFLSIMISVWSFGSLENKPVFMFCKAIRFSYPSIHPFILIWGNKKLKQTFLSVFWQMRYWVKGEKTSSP
hT2R4, sequence (Q9NYW5 whole entry): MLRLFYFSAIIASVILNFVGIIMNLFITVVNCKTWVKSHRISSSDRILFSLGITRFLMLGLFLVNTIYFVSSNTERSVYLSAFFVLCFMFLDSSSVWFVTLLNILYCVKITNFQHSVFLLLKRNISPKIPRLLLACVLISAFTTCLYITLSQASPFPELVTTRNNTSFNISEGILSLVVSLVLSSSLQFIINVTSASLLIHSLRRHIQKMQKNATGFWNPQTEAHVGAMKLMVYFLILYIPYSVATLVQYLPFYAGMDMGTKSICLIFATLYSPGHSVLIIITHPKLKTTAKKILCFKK
hT2R75, sequence (P59540 whole entry): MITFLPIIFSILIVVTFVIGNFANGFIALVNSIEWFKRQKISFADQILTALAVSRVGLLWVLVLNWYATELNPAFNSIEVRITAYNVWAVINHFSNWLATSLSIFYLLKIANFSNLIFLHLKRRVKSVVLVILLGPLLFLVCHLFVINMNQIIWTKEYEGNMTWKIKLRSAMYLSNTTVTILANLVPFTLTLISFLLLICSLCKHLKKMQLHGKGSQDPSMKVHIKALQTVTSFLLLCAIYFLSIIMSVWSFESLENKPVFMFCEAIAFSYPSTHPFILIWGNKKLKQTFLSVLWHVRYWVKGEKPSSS

SMILES	inhibition at 25 µM (hT2R3)	inhibition at 25 µM (hT2R51)	inhibition at 25 µM (hT2R16)	inhibition at 25 µM (hT2R4)	inhibition at 25 µM (hT2R10)	pIC50 (hT2R14 [1])	screening result against bitter receptor 55 (hT2R55)	inhibition at 25 µM (hT2R64)	inhibition at 25 µM (hT2R61)	screening result against bitter receptor 65 (hT2R65)	inhibition at 25 µM (hT2R9)	screening result against bitter receptor 54 (hT2R54)	inhibition at 25 µM (hT2R71)	screening result against bitter receptor 44 (hT2R44)	screening result against bitter receptor 63 (hT2R63)	inhibition at 25 µM (hT2R14 [2])	inhibition at 25 µM (hT2R75)	screening result against bitter receptor 67 (hT2R67)	inhibition at 25 µM (hT2R5)	inhibition at 25 µM (hT2R7)
CCOc1ccc(CN(Cc2ccco2)S(=O)(=O)c2ccc(C(=O)O)cc2)cc1 [Example 5-3, 4-(N-(4-ethoxybenzyl)-N-(furan-2-ylmethyl)sulfamoyl)benzoic acid]	40 to 60%	20 to 40%	20 to 40%	60 to 80%	40 to 60%	5.52	++++ (80% or greater inhibition = ++++)	> 80%	40 to 60%	+ (20% to 40% inhibition = +)	20 to 40%	++ (40% to 60% inhibition = ++)	20 to 40%	++ (40% to 60% inhibition = ++)	+++ (60% to 80% inhibition = +++)	> 80%				
Cc1ccccc1CN(Cc1ccccc1)S(=O)(=O)c1ccc(C(=O)O)cc1 [Example 5-80, 4-(N-benzyl-N-(2-methylbenzyl)sulfamoyl)benzoic acid]	40 to 60%	40 to 60%	20 to 40%		20 to 40%		+++ (60% to 80% inhibition = +++)	60 to 80%	60 to 80%	++ (40% to 60% inhibition = ++)	20 to 40%	+ (20% to 40% inhibition = +)	60 to 80%	+ (20% to 40% inhibition = +)	++++ (80% or greater inhibition = ++++)	> 80%	20 to 40%	+ (20% to 40% inhibition = +)	20 to 40%	20 to 40%
COc1ccc(CN(Cc2ccccc2C#N)S(=O)(=O)c2ccc(C(=O)O)cc2)cc1 [Example 5-25, 4-(N-(2-cyanobenzyl)-N-(4-methoxybenzyl)sulfamoyl)benzoic acid]	60 to 80%	20 to 40%	40 to 60%	20 to 40%	60 to 80%	5.34	+++ (60% to 80% inhibition = +++)			++++ (80% or greater inhibition = ++++)	20 to 40%	+++ (60% to 80% inhibition = +++)		+++ (60% to 80% inhibition = +++)		> 80%		++ (40% to 60% inhibition = ++)	40 to 60%	40 to 60%
COc1ccc(CN(Cc2ccccc2)S(=O)(=O)c2ccc(C(=O)O)cc2)c(OC)c1 [Example 5-13, 4-(N-benzyl-N-(2,4-dimethoxybenzyl)sulfamoyl)benzoic acid]	40 to 60%	20 to 40%	20 to 40%		20 to 40%		++++ (80% or greater inhibition = ++++)	60 to 80%	> 80%	+ (20% to 40% inhibition = +)	20 to 40%	+++ (60% to 80% inhibition = +++)	40 to 60%	+++ (60% to 80% inhibition = +++)	++++ (80% or greater inhibition = ++++)	> 80%			20 to 40%	20 to 40%
COc1ccc(CN(Cc2cccc(OC)c2)S(=O)(=O)c2ccc(C(=O)O)cc2)cc1 [Example 5-34, 4-(N-(3-methoxybenzyl)-N-(4-methoxybenzyl)sulfamoyl)-benzoic acid]	40 to 60%	20 to 40%	20 to 40%		40 to 60%	5.61	++++ (80% or greater inhibition = ++++)	60 to 80%	> 80%	++ (40% to 60% inhibition = ++)	20 to 40%	+++ (60% to 80% inhibition = +++)	60 to 80%	++ (40% to 60% inhibition = ++)	++++ (80% or greater inhibition = ++++)	> 80%		+ (20% to 40% inhibition = +)	40 to 60%	20 to 40%
O=C(O)c1ccc(S(=O)(=O)N(Cc2ccccc2)Cc2ccccc2F)cc1 [Example 5-72, 4-(N-benzyl-N-(2-fluorobenzyl)sulfamoyl)benzoic acid]	20 to 40%	20 to 40%	20 to 40%		20 to 40%		++ (40% to 60% inhibition = ++)	20 to 40%	60 to 80%	+ (20% to 40% inhibition = +)	20 to 40%	+ (20% to 40% inhibition = +)	20 to 40%	+ (20% to 40% inhibition = +)	++++ (80% or greater inhibition = ++++)	> 80%	40 to 60%	+ (20% to 40% inhibition = +)	40 to 60%	
